According to patent publication US20090286720A1, “PHARMACEUTICAL COMPOSITION FOR THE DIAGNOSIS, PREVENTION OR TREATMENT OF A TUMORAL PATHOLOGY COMPRISING AN AGENT MODULATING THE POLYMERIZATION STATE OF ACTIN” (priority 2001, published 2009):
Starred links: 1 amine or outer side, 2 acyl side, 3 side chain; linkers in the order of their positions; H or OH if unused. Non-standard residues stand in square brackets, D forms with d. Residues, ends and D or L forms follow the SMILES beside them. X1 = CC[C@H](C)[C@H](OC(=O)[C@@H](C)[C@@H](CC)N[*:1])C(=O)[*:2]; X2 = C[C@H](N[*:1])C(=O)C(C)(C)C(=O)[*:2]; NMeY = CN[C@@H](Cc1ccc(O)cc1)C(=O)O; NMeL = CN[C@@H](CC(C)C)C(=O)O; NMeV = CN[C@H](C(=O)O)C(C)C

Key:
EWS-Fli cells [1] = test: Toxicity of dolastatin-11 by MTT test on EWS-Fli cells; assay type: cell-based, murine; conditions: low concentrations (10 or 20 nM), FIG. 13
Protocol: (§1) The cells (10^4 per well) were cultured in 96-well plates in the presence of different concentrations of D11. Monitoring of the toxicity of D11 in relation to time was performed by means of an MTT test on the NIH3T3 cells (A) and the EWS-Fli cells (B). The results are illustrated in FIG. 13.

NIH3T3 cells [2] = test: Morphological modification of NIH3T3 cells (actin filaments stained with phalloidin-FITC); assay type: cell-based, murine; conditions: same concentrations (10 or 20 nM); FIG. 12
Protocol: The cells (5×10^3) were cultured on glass slides 10 mm in diameter and kept in culture for 24 hours. After fixation (3% paraformaldehyde) and permeabilization (0.2% TritonX100), the actin filaments of the cells were immunostained by phalloidin coupled to FITC. […]

EWS-Fli cells [3] = test: Development of tumors in the nude mouse after subcutaneous injection of EWS-Fli cells; assay type: in vivo; conditions: nude mice, 10 μg/kg intravenous on 5th, 8th and 11th days after EWS-Fli cell injection, measured on 28th day; FIG. 14
Protocol: Twenty-four hours after irradiation (5 Gy) of the mice, the EWS-Fli cells (10^6) were inoculated via the subcutaneous route. The mice were then separated into two lots, with the first lot corresponding to the untreated mice and the second lot to the mice having received three injections of dolastatin 11 via the intravenous route (10 μg/kg) on the 5th, 8th and 11th days after injection of the EWS-Fli cells. […]

EWS-Fli cells [4] = test: Morphological modification of EWS-Fli cells (actin filaments stained with phalloidin-FITC); assay type: cell-based, murine; conditions: FIG. 12
Protocol: The cells (5×10^3) were cultured on glass slides 10 mm in diameter and kept in culture for 24 hours. After fixation (3% paraformaldehyde) and permeabilization (0.2% TritonX100), the actin filaments of the cells were immunostained by phalloidin coupled to FITC. Untreated NIH3T3; NIH3T3 transfected by EWS-Fli (EF); EF incubated in the presence of 10 μM or 100 μM of jasplakinolide; EF incubated with 10 μM or 20 μM of D11 (FIG. 12).

[5] = Survival of the mice (tolerated dose); conditions: intravenous
actin = test: In vitro measurement of actin polymerization by fluorescence anisotropy in EWS-Fli cell extracts; assay type: biochemical; conditions: dolastatin 11 added in the polymerization buffer of EWS-Fli cell extracts; deficit versus NIH3T3 extracts; FIG. 11
Protocol: Cell extracts of NIH3T3 cells or EWS-Fli cells were brought into the presence of actin Alexa 488 in a buffer G ([…] pH 8.1; 170 μM CaCl2; 170 μM DTT; 170 μM ATP). The polymerization reaction was triggered by addition of a buffer P (KCl 51 mM, MgCl2 1 mM and ATP 0.5 mM). Dolastatin (μM) was added to the cell extracts of the EWS-Fli cells at the same time as the buffer P. Polymerization of actin was monitored by fluorescence anisotropy on a Beacon 2000. The results obtained are illustrated in FIG. 11.

NIH3T3 cells [6] = test: Toxicity of dolastatin-11 by MTT test on NIH3T3 cells; assay type: cell-based, murine; conditions: low concentrations (10 or 20 nM), FIG. 13
Protocol: as §1

SMILES | cytotoxicity or cytostaticity (MTT test) (EWS-Fli cells [1]) | morphology of NIH3T3 cells (NIH3T3 cells [2]) | development of tumors (EWS-Fli cells [3]) | effect on the cytoskeleton (EWS-Fli cells [4]; EWS-Fli cells incubated with 10 μM or 20 μM of D11) | contact structures between the cells (EWS-Fli cells [4]; EWS-Fli cells, 10 or 20 nM) | stress fibers and morphology of the cells (EWS-Fli cells [4]; EWS-Fli cells, 10 or 20 nM) | dose used (10 μg/kg) relative to the dose not affecting survival of the mice [5] | capacity of cell extracts to polymerize actin (fluorescence anisotropy) (actin) | cytotoxicity or cytostaticity (MTT test) (NIH3T3 cells [6]) | effect on the cytoskeleton (EWS-Fli cells [4]; EWS-Fli cells incubated with 10 μM or 100 μM of jasplakinolide)
CC[C@H](C)[C@@H]1OC(=O)[C@@H](C)[C@@H](CC)NC(=O)[C@H](C)NC(=O)C(C)(C)C(=O)[C@H](C)NC(=O)[C@H](Cc2ccc(OC)cc2)N(C)C(=O)[C@H](C(C)C)N(C)C(=O)CNC(=O)[C@H](CC(C)C)N(C)C(=O)CNC1=O [dolastatin 11] (cyclo(A[X1]G[NMeL]G[NMeV][NMeY](Me)[X2])) | no cytotoxicity or cytostaticity effects were observed | did not modify in the least | markedly delayed | effect | reestablished the contact structures between the cells | restored the stress fibers of the cells with a morphology close to that of NIH3T3 cells | five times weaker than the dose not affecting survival of the mice | can compensate in part for this deficit | no cytotoxicity or cytostaticity effects were observed | –
C/C1=C\[C@H](C)C[C@H](C)OC(=O)C[C@H](c2ccc(O)cc2)NC(=O)[C@@H](Cc2c(Br)[nH]c3ccccc23)N(C)C(=O)[C@H](C)NC(=O)[C@@H](C)C1 [jasplakinolide] | – | – | – | – | – | – | – | – | – | effect
